Data reported in patent US20220133717A1, “RABEXIMOD IN THE TREATMENT OF RHEUMATOID ARTHRITIS” (CYXONE AB, priority 2020, published 2022).
Where two headings read alike, the source gives them in different places.

Assays:
[1] = Phase II clinical trial: pharmacokinetics of plasma Rabeximod (PK subgroup); type: in vivo, human; settings: for half-life / Tmax / AUC(0-t) / AUC / Cmax: human, plasma, oral
Excerpt: A total of 9 visits occurred over the course of the study (screening, randomisation [Day 0, baseline]. Day 1, and Weeks 2, 4, 6, 8, 12 and 16). The Day 1 visit was included for a subgroup of 36 patients (PK/PD subgroup) who were selected at specified study centres to also participate in the PK/PD aspect of the study. Individual patient duration in the study was approximately 126 days (a 14 day screening period, an 84 day treatment period [12 weeks], and a 28 day [4 week] follow-up period).
In addition to standard efficacy and safety assessments, it was planned that 40 patients in selected study centres would have blood draws at the beginning of the study (Day 1) and at the end of the study (Week 12) to assess the PK of Rabeximod. The actual number of patients who participated in the PK aspect of the study was 36. The ACR20, ACR50 and ACR70 are assessments of RA improvement. The mHAQ is a validated instrument used to assess patient satisfaction in activity of daily living. It was planned to use the Original DAS as the outcome measure, but this was replaced with DAS28 because it is used more frequently in therapeutic studies have been used in many RA studies.
[…] The study drug was to be taken at approximately the same time every morning, starting from Day 1. For the PK/PD subgroup, on the day when the PK/PD sampling was scheduled, study drug was to be taken after the first blood sampling. The study design of the treatment phase was double-blind. All study drug, including placebo, were identical in size, shape, colour and taste, thus allowing double-blind conditions to be maintained. All study personnel and patients remained blinded to the drug treatment assignments. Patients self-administered all doses of study drug end were instructed to return all residual, unused and empty packaging to the clinic at scheduled visits. If dosing compliance was not maintained at between 80% and 120% then the patient was to be withdrawn from the study. Patients in the PK/PD subgroup were to take study drug at the clinic on Day 1 and at Week 12. Compliance was monitored through drug accountability. The Investigator, or designee, maintained an inventory record of study drug received, dispensed, administered and returned to assure the Sponsor that study drug was not dispensed to any person who was not a patient under the terms and conditions set forth in the protocol. Clinically significant protocol deviations were identified based on criteria determined by the project leader to be clinically relevant. Deviations were reported on the CRFs. Additionally, upon completion of the study, certain deviations (e.g., visit window deviations) were identified through the use of SAS® programming.
The PK assessment of Rabeximod was performed in a subgroup of 36 patients during the study.
Concentration-time profiles for plasma Rabeximod following single (Day 1) and repeated administration (Week 12) of Rabeximod were determined.

[2] = system: patients with moderate or severe active rheumatoid arthritis; assay: Phase II clinical trial: safety (AEs, physical examinations, vital signs, ECG)
Excerpt: The Phase II study was a randomised, parallel-group, double-blind, dose-ranging, placebo-controlled study of Rabeximod in patients with moderate or severe active RA with an inadequate response to methotrexate.
Safety assessments included AEs, vital signs, weight, physical examination, 12-lead ECG and safety laboratory tests (serum chemistry, haematology and urinalysis).
Safety measurements for this study included AEs, clinical laboratory tests, physical examinations, vital signs and resting 12-lead ECGs.

SMILES: Cc1cc2nc3c4cc(Cl)ccc4n(CC(=O)NCCN(C)C)c3nc2cc1C [Rabeximod, 9-Chloro-2,3-dimethyl-6-(N,N-dimethylaminoethylamino-2-oxoethyl)-6H-indolo-[2,3-b]quinoxaline]
- impact of methotrexate on the kinetics of Rabeximod ([1]; co-administered stable dose of methotrexate): does not appear to have an impact
- increase of geometric mean AUC0-τ, AUC0-t and Cmax with dose ([1]; dose range 6.25 to 37.5 mg, with stable dose of methotrexate): approximately dose-proportional
- half-life ([1]; 6.25 mg, Week 12, 6.25 mg, read-out: geometric mean apparent terminal half-life (t1/2) (converted)): 81.5 h
- half-life ([1]; 15 mg, Week 12, 15 mg, read-out: geometric mean apparent terminal half-life (t1/2) (converted)): 77.1 h
- half-life ([1]; 37.5 mg, Week 12, 37.5 mg, read-out: geometric mean apparent terminal half-life (t1/2) (converted)): 111 h
- Tmax ([1]; 37.5 mg, single administration at 6.25, 15 and 37.5 mg, across all dose levels, with methotrexate, read-out: Tmax (median estimates)): 5 to 8 h
- Tmax ([1]; repeated administration, Week 12, read-out: Tmax (median estimates)): 2 to 4 h
- AUC(0-t) ([1]; po, 6.25 mg, Week 12, 6.25 mg once daily, RA patients, with methotrexate, read-out: AUC0-t, Median): 2810 ng·h/mL
- half-life ([1]; po, 6.25 mg, Week 12, 6.25 mg once daily, RA patients, with methotrexate, read-out: T1/2 (apparent terminal half-life), Geometric mean (converted)): 81.5 h
- half-life ([1]; po, 6.25 mg, Week 12, 6.25 mg once daily, RA patients, with methotrexate, read-out: T1/2 (apparent terminal half-life), Median (converted)): 86.6 h
- AUC ([1]; po, 6.35 mg, Day 1 (equivalent to AUC0-t), 6.35 mg, RA patients, with methotrexate, read-out: AUC0-τ, Geometric mean): 112 ng·h/mL
- AUC ([1]; po, 6.35 mg, Day 1 (equivalent to AUC0-t), 6.35 mg, RA patients, with methotrexate, read-out: AUC0-τ, Median): 107 ng·h/mL
- Cmax ([1]; po, 6.35 mg, Day 1, 6.35 mg, RA patients, with methotrexate, read-out: Cmax, Geometric mean): 7.92 ng/mL
- Cmax ([1]; po, 6.35 mg, Day 1, 6.35 mg, RA patients, with methotrexate, read-out: Cmax, Median): 7.05 ng/mL
- Tmax ([1]; po, 6.35 mg, Day 1, 6.35 mg, RA patients, with methotrexate, read-out: Tmax, Median): 8.03 h
- AUC(0-t) ([1]; po, 6.35 mg, Week 12, 6.35 mg once daily, RA patients, with methotrexate, read-out: AUC0-t, Geometric mean): 2530 ng·h/mL
- AUC ([1]; po, 6.35 mg, Week 12, 6.35 mg once daily, RA patients, with methotrexate, read-out: AUC0-τ, Geometric mean): 587 ng·h/mL
- AUC ([1]; po, 6.35 mg, Week 12, 6.35 mg once daily, RA patients, with methotrexate, read-out: AUC0-τ, Median): 710 ng·h/mL
- Cmax ([1]; po, 6.35 mg, Week 12, 6.35 mg once daily, RA patients, with methotrexate, read-out: Cmax, Geometric mean): 31 ng/mL
- Cmax ([1]; po, 6.35 mg, Week 12, 6.35 mg once daily, RA patients, with methotrexate, read-out: Cmax, Median): 37.5 ng/mL
- Tmax ([1]; po, 6.35 mg, Week 12, 6.35 mg once daily, RA patients, with methotrexate, read-out: Tmax, Median): 2.17 h
- AUC ([1]; po, 15 mg, Day 1 (equivalent to AUC0-t), 15 mg, RA patients, with methotrexate, read-out: AUC0-τ, Geometric mean): 282 ng·h/mL
- AUC ([1]; po, 15 mg, Day 1 (equivalent to AUC0-t), 15 mg, RA patients, with methotrexate, read-out: AUC0-τ, Median): 254 ng·h/mL
- Cmax ([1]; po, 15 mg, Day 1, 15 mg, RA patients, with methotrexate, read-out: Cmax, Geometric mean): 18.3 ng/mL
- Cmax ([1]; po, 15 mg, Day 1, 15 mg, RA patients, with methotrexate, read-out: Cmax, Median): 16 ng/mL
- Tmax ([1]; po, 15 mg, Day 1, 15 mg, RA patients, with methotrexate, read-out: Tmax, Median): 6.04 h
- AUC(0-t) ([1]; po, 15 mg, Week 12, 15 mg once daily, RA patients, with methotrexate, read-out: AUC0-t, Geometric mean): 4970 ng·h/mL
- AUC(0-t) ([1]; po, 15 mg, Week 12, 15 mg once daily, RA patients, with methotrexate, read-out: AUC0-t, Median): 5590 ng·h/mL
- AUC ([1]; po, 15 mg, Week 12, 15 mg once daily, RA patients, with methotrexate, read-out: AUC0-τ, Geometric mean): 1530 ng·h/mL
- AUC ([1]; po, 15 mg, Week 12, 15 mg once daily, RA patients, with methotrexate, read-out: AUC0-τ, Median): 1480 ng·h/mL
- Cmax ([1]; po, 15 mg, Week 12, 15 mg once daily, RA patients, with methotrexate, read-out: Cmax, Geometric mean): 79.7 ng/mL
- Cmax ([1]; po, 15 mg, Week 12, 15 mg once daily, RA patients, with methotrexate, read-out: Cmax, Median): 91.6 ng/mL
- half-life ([1]; po, 15 mg, Week 12, 15 mg once daily, RA patients, with methotrexate, read-out: T1/2 (apparent terminal half-life), Geometric mean (converted)): 77.1 h
- half-life ([1]; po, 15 mg, Week 12, 15 mg once daily, RA patients, with methotrexate, read-out: T1/2 (apparent terminal half-life), Median (converted)): 77.6 h
- Tmax ([1]; po, 15 mg, Week 12, 15 mg once daily, RA patients, with methotrexate, read-out: Tmax, Median): 4 h
- AUC ([1]; po, 37.5 mg, Day 1 (equivalent to AUC0-t), 37.5 mg, RA patients, with methotrexate, read-out: AUC0-τ, Geometric mean): 689 ng·h/mL
- AUC ([1]; po, 37.5 mg, Day 1 (equivalent to AUC0-t), 37.5 mg, RA patients, with methotrexate, read-out: AUC0-τ, Median): 697 ng·h/mL
- Cmax ([1]; po, 37.5 mg, Day 1, 37.5 mg, RA patients, with methotrexate, read-out: Cmax, Geometric mean): 41.7 ng/mL
- Cmax ([1]; po, 37.5 mg, Day 1, 37.5 mg, RA patients, with methotrexate, read-out: Cmax, Median): 41.8 ng/mL
- Tmax ([1]; po, 37.5 mg, Day 1, 37.5 mg, RA patients, with methotrexate, read-out: Tmax, Median): 5.03 h
- AUC(0-t) ([1]; po, 37.5 mg, Week 12, 37.5 mg once daily, RA patients, with methotrexate, read-out: AUC0-t, Geometric mean): 15900 ng·h/mL
- AUC(0-t) ([1]; po, 37.5 mg, Week 12, 37.5 mg once daily, RA patients, with methotrexate, read-out: AUC0-t, Median): 17500 ng·h/mL
- AUC ([1]; po, 37.5 mg, Week 12, 37.5 mg once daily, RA patients, with methotrexate, read-out: AUC0-τ, Geometric mean): 4040 ng·h/mL
- AUC ([1]; po, 37.5 mg, Week 12, 37.5 mg once daily, RA patients, with methotrexate, read-out: AUC0-τ, Median): 4540 ng·h/mL
- Cmax ([1]; po, 37.5 mg, Week 12, 37.5 mg once daily, RA patients, with methotrexate, read-out: Cmax, Geometric mean): 218 ng/mL
- Cmax ([1]; po, 37.5 mg, Week 12, 37.5 mg once daily, RA patients, with methotrexate, read-out: Cmax, Median): 238 ng/mL
- half-life ([1]; po, 37.5 mg, Week 12, 37.5 mg once daily, RA patients, with methotrexate, read-out: T1/2 (apparent terminal half-life), Geometric mean (converted)): 111 h
- half-life ([1]; po, 37.5 mg, Week 12, 37.5 mg once daily, RA patients, with methotrexate, read-out: T1/2 (apparent terminal half-life), Median (converted)): 107 h
- Tmax ([1]; po, 37.5 mg, Week 12, 37.5 mg once daily, RA patients, with methotrexate, read-out: Tmax, Median): 3.99 h
- proportion of patients experiencing study drug-related AEs ([2]; 37.5 mg group (32 patients)): 58.2%
- deaths during the study ([2]; 12 weeks treatment, 4 weeks follow-up): No deaths
- proportion of patients experiencing study drug-related AEs ([2]; Rabeximod groups pooled (placebo 11.1%)): 34.5%
- majority of changes in physical examinations ([2]; all occurred in the Rabeximod group, most reported as AEs): skin abnormalities
- relation of skin abnormality events to dose ([2]; majority in 37.5 mg group, then 15 mg, then 6.25 mg): dose response
- tolerability ([2]; once daily at 6.25, 15 and 37.5 mg, RA patients taking methotrexate): well-tolerated
- changes in vital signs and 12-lead ECGs ([2]; over the course of the study): no notable changes
